Biological target: T1, SMYD3 (Homo sapiens, UniProt Q9H7B4)
T1 sequence (Q9H7B4 1-428): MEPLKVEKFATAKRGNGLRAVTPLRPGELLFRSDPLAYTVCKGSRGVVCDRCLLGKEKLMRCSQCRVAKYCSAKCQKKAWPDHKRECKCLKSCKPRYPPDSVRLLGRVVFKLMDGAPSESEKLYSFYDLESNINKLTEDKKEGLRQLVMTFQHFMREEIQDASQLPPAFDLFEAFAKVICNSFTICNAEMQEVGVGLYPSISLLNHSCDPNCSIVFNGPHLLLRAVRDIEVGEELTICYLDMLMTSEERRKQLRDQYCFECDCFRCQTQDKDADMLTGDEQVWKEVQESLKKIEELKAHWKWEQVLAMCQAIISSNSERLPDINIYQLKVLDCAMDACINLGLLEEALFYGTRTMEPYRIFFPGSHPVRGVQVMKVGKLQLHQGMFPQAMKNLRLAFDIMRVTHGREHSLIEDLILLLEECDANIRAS
Assay: SMYD3 biochemical assay (MTase-Glo, MAP3K2 peptide substrate)
Conditions: Table 3; MTase assay, MAP3K2 peptide substrate; read-out: IC50
Outline: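 Methylation of MAP3K2 peptide (10 µM final) with SAM (1.0 µM final) by SMYD3, 30 min at room temperature. SAH formed was enzymatically converted to ATP and detected as luminescence with MTase-Glo reagents; IC50 by non-linear regression.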

Structure (SMILES) | IC50 [µM]
CCCOC(=O)N1CCN(C(=O)c2ccc3c(Cl)cc(-c4ccc(-c5ccn[nH]5)cc4)nc3c2)CC1 [B135, Propyl 4-(2-(4-(1H-pyrazol-5-yl)phenyl)-4-chloroquinoline-7-carbonyl)piperazine-1-carboxylate] | 0.4
CCCOC(=O)N1CCN(C(=O)c2ccc3c(Cl)cc(-c4ccc(-c5cn[nH]c5)cc4)nc3c2)CC1 [B136, Propyl 4-(2-(4-(1H-pyrazol-4-yl)phenyl)-4-chloroquinoline-7-carbonyl)piperazine-1-carboxylate] | 0.038
CCCOC(=O)N1CCN(C(=O)c2ccc3c(Cl)cc(-c4ccc(C(=O)O)c(C)c4)nc3c2)CC1 [B137, 4-(4-Chloro-7-(4-(propoxycarbonyl)piperazine-1-carbonyl)quinolin-2-yl)-2-methylbenzoic acid] | 3.6
CCCOC(=O)N1CCN(C(=O)c2ccc3c(Cl)cc(-c4ccc5c(ccn5C)c4)nc3c2)CC1 [B140, Propyl 4-(4-chloro-2-(1-methyl-1H-indo1-5-yl)quinoline-7-carbonyl)piperazine-1-carboxylate] | 0.35
CCCOC(=O)N1CCN(C(=O)c2ccc3c(Cl)cc(-c4cccc(CO)c4)nc3c2)C[C@H]1C [B142, Propyl (R)-4-(4-chloro-2-(3-(hydroxymethyl)phenyl)quinoline-7-carbonyl)-2-methylpiperazine-1-carboxylate] | 0.055
CCCOC(=O)N1CCN(C(=O)c2ccc3c(Cl)cc(-c4cccc(O)c4)nc3c2)CC1 [B143, Propyl 4-(4-chloro-2-(3-hydroxyphenyl)quinoline-7-carbonyl)piperazine-1-carboxylate] | 0.016
CCCOC(=O)N1CCN(C(=O)c2ccc3c(Cl)cc(-c4cccc(CN)c4)nc3c2)C[C@@H]1C [B145, Propyl (S)-4-(2-(3-(aminomethyl)phenyl)-4-chloroquinoline-7-carbonyl)-2-methylpiperazine-1-carboxylate] | 0.047
CCCOC(=O)N1CCN(C(=O)c2ccc3c(Cl)cc(-c4ccc(C(N)=O)cc4)nc3c2)C[C@@H]1C [B146, Propyl (S)-4-(2-(4-carbamoylphenyl)-4-chloroquinoline-7-carbonyl)-2-methylpiperazine-1-carboxylate] | 0.042
CCCOC(=O)N1CCN(C(=O)c2ccc3c(Cl)cc(-c4cn[nH]c4)nc3c2)CC1 [B147, Propyl 4-(4-chloro-2-(1H-pyrazol-4-yl)quinoline-7-carbonyl)piperazine-1-carboxylate] | 0.15
CCCOC(=O)N1CCN(C(=O)c2ccc3c(Cl)cc(-c4ccc(F)c(CO)c4)nc3c2)CC1 [B150] | 0.28
CCCOC(=O)N1CCN(C(=O)c2ccc3c(Cl)cc(-c4ccc(F)c(C(N)=O)c4)nc3c2)CC1 [B151, Propyl 4-(2-(3-carbamoyl-4-fluorophenyl)-4-chloroquinoline-7-carbonyl)piperazine-1-carboxylate] | 0.62
CCCOC(=O)N1CCN(C(=O)c2ccc3c(Cl)cc(-c4ccc(F)c(C(=O)NC)c4)nc3c2)CC1 [B152, Propyl 4-(4-chloro-2-(4-fluoro-3-(methylcarbamoyl)phenyl)quinoline-7-carbonyl)piperazine-1-carboxylate] | 0.41
CCCOC(=O)N1CCN(C(=O)c2ccc3c(Cl)cc(-c4cscn4)nc3c2)CC1 [B153, Propyl 4-(4-chloro-2-(thiazol-4-yl)quinoline-7-carbonyl)piperazine-1-carboxylate] | 1.13
CCCOC(=O)N1CCN(C(=O)c2ccc3c(Cl)cc(-c4ccc(F)c(C(=O)N(C)C)c4)nc3c2)CC1 [B154, Propyl 4-(4-chloro-2-(3-(dimethylcarbamoyl)-4-fluorophenyl)quinoline-7-carbonyl)piperazine-1-carboxylate] | 2.29
CCCOC(=O)N1CCN(C(=O)c2ccc3c(Cl)cc(-c4ccc5c(cnn5C)c4)nc3c2)CC1C (centres unmarked) [B155, Propyl 4-(4-chloro-2-(1-methyl-1H-indazol-5-yl)quinoline-7-carbonyl)-2-methylpiperazine-1-carboxylate] | 0.18
CCCOC(=O)N1CCN(C(=O)c2ccc3c(Cl)cc(-c4ccc(F)c(O)c4)nc3c2)CC1 [B157, Propyl 4-(4-chloro-2-(4-fluoro-3-hydroxyphenyl)quinoline-7-carbonyl)piperazine-1-carboxylate] | 0.36
CCCOC(=O)N1CCN(C(=O)c2ccc3c(Cl)cc(-c4ccc(C)c(CO)c4)nc3c2)CC1 [B159, Propyl 4-(4-chloro-2-(3-(hydroxymethyl)-4-methylphenyl)quinoline-7-carbonyl)piperazine-1-carboxylate] | 0.12
CCCOC(=O)N1CCN(C(=O)c2ccc3c(Cl)cc(-c4ccc5c(c4)OCO5)nc3c2)CC1 [B163, Propyl 4-(2-(benzo[d][1,3]dioxol-5-yl)-4-chloroquinoline-7-carbonyl)piperazine-1-carboxylate] | 0.12
CCCOC(=O)N1CCN(C(=O)c2ccc3c(Cl)cc(-c4ccc(OC)c(F)c4)nc3c2)CC1 [B165, Propyl 4-(4-chloro-2-(3-fluoro-4-methoxyphenyl)quinoline-7-carbonyl)piperazine-1-carboxylate] | 0.15
CCCOC(=O)N1CCN(C(=O)c2ccc3c(Cl)cc(-c4cnc(C)s4)nc3c2)CC1 [B166, Propyl 4-(4-chloro-2-(2-methylthiazol-5-yl)quinoline-7-carbonyl)piperazine-1-carboxylate] | 3.67
CCCOC(=O)N1CCN(C(=O)c2ccc3c(Cl)cc(-c4ccc(F)c(CN(C)C)c4)nc3c2)CC1 [B167] | 0.66
CCCOC(=O)N1CCN(C(=O)c2ccc3c(Cl)cc(-c4ccc5[nH]ncc5c4)nc3c2)C[C@@H]1C [B169, Propyl (S)-4-(4-chloro-2-(1H-indazol-5-yl)quinoline-7-carbonyl)-2-methylpiperazine-1-carboxylate] | 0.15
CCCOC(=O)N1CCN(C(=O)c2ccc3c(Cl)cc(-c4ccc5nn(C)cc5c4)nc3c2)C[C@@H]1C [B170, Propyl (S)-4-(4-chloro-2-(2-methyl-2H-indazol-5-yl)quinoline-7-carbonyl)-2-methylpiperazine-1-carboxylate] | 0.26

Continued, values first:

IC50 [µM] | Structure (SMILES)
0.83 | CCCOC(=O)N1CCN(C(=O)c2ccc3c(Cl)cc(-c4cc[nH]n4)nc3c2)CC1 [B138, Propyl 4-(4-chloro-2-(1H-pyrazol-5-yl)quinoline-7-carbonyl)piperazine-1-carboxylate]
0.034 | CCCOC(=O)N1CCN(C(=O)c2ccc3c(Cl)cc(-c4ccc5[nH]cnc5c4)nc3c2)CC1 [B139, Propyl 4-(2-(1H-benzo[d]imidazol-5-yl)-4-chloroquinoline-7-carbonyl)piperazine-1-carboxylate]
0.63 | CCCOC(=O)N1CCN(C(=O)c2ccc3c(Cl)cc(-c4cccc5[nH]ncc45)nc3c2)CC1 [B141, Propyl 4-(4-chloro-2-(1H-indazol-4-yl)quinoline-7-carbonyl)piperazine-1-carboxylate]
0.018 | CCCOC(=O)N1CCN(C(=O)c2ccc3c(Cl)cc(-c4ccc5c(cnn5C)c4)nc3c2)C[C@@H]1C [B144, Propyl (S)-4-(4-chloro-2-(1-methyl-1H-indazol-5-yl)quinoline-7-carbonyl)-2-methylpiperazine-1-carboxylate]
0.099 | CCCOC(=O)N1CCN(C(=O)c2ccc3c(Cl)cc(-c4ccsc4)nc3c2)CC1 [B148, Propyl 4-(4-chloro-2-(thiophen-3-yl)quinoline-7-carbonyl)piperazine-1-carboxylate]
0.11 | CCCOC(=O)N1CCN(C(=O)c2ccc3c(Cl)cc(-c4ccc(NC(C)=O)nc4)nc3c2)CC1 [B149, Propyl 4-(2-(6-acetamidopyridin-3-yl)-4-chloroquinoline-7-carbonyl)piperazine-1-carboxylate]
0.084 | CCCOC(=O)N1CCN(C(=O)c2ccc3c(Cl)cc(-c4cccc(C(C)O)c4)nc3c2)CC1 (centres unmarked) [B158, Propyl 4-(4-chloro-2-(3-(1-hydroxyethyl)phenyl)quinoline-7-carbonyl)piperazine-1-carboxylate]
0.15 | CCCOC(=O)N1CCN(C(=O)c2ccc3c(Cl)cc(-c4ccc(O)cc4)nc3c2)[C@@H](C)C1 [B160, Propyl (S)-4-(4-chloro-2-(4-hydroxyphenyl)quinoline-7-carbonyl)-3-methylpiperazine-1-carboxylate]
0.33 | CCCOC(=O)N1CCN(C(=O)c2ccc3c(Cl)cc(-c4ccc(CF)cc4)nc3c2)[C@@H](C)C1 [B161, Propyl (S)-4-(4-chloro-2-(4-(fluoromethyl)phenyl)quinoline-7-carbonyl)-3-methylpiperazine-1-carboxylate]
0.2 | CCCOC(=O)N1CCN(C(=O)c2ccc3c(Cl)cc(-c4ccc(O)c(F)c4)nc3c2)[C@@H](C)C1 [B162, Propyl (S)-4-(4-chloro-2-(3-fluoro-4-hydroxyphenyl)quinoline-7-carbonyl)-3-methylpiperazine-1-carboxylate]
0.36 | CCCOC(=O)N1CCN(C(=O)c2ccc3c(Cl)cc(-c4ccc5nn[nH]c5c4)nc3c2)CC1 [B164, Propyl 4-(2-(1H-benzo[d][1,2,3]triazol-6-yl)-4-chloroquinoline-7-carbonyl)piperazine-1-carboxylate]
1.75 | CCCOC(=O)N1CCN(C(=O)c2ccc3c(Cl)cc(-c4ccn(C)n4)nc3c2)CC1 [B168, Propyl 4-(4-chloro-2-(1-methyl-1H-pyrazol-3-yl)quinoline-7-carbonyl)piperazine-1-carboxylate]
